In patent US20180296456A1, “Decapeptide-12 Modulation of Sirtuin Gene Expression in Epidermal Keratinocyte Progenitors” (Escape Therapeutics, Inc., priority 2017, published 2018):
Peptide text beside a SMILES is read from it.

Tests used:
SIRT1 = SIRT1 transcription, semi-quantitative RT-PCR in human epidermal progenitors; assay type: cell-based; settings: 72 h
Experimental: (§1) Human neonatal epidermal progenitors (Thermo Fisher Scientific, NY) were seeded in 6-well plates at a density of 2×10^5 cells/well. Each well received 2 ml of Epilife media containing 60 μM calcium chloride (Thermo Fisher Scientific, NY). Plates were incubated in a humidified chamber at 37 degrees Celsius and 5 percent CO2. Twenty-four hours later, cells were treated with various concentrations of oxyresveratrol or decapeptide-12 dissolved in PBS containing 5 percent DMSO. Control wells received vehicle only (5 percent DMSO and PBS). Final concentration of DMSO in each well was 0.05 percent.
(§2) After a 72 hour incubation period, cells were trypsinized and total RNA extracted, using RNeasy kit (Qiagen, Valencia, Calif.) according to the manufacturer's protocol.
(§3) RNA concentration was determined using nanodrop (Thermo fisher scientific, NY). Two μg of total RNA were used to synthesize cDNA using oligo dT primers and TaqMan reverse transcription reagents (Thermo fisher scientific, NY). The reaction was carried out in DNA Engine Peltier Thermal Cycler (Bio-Rad, Hercules, Calif.). The annealing temperature was 25 degrees Celsius for 10 minutes, followed by first strand synthesis at 48 degrees Celsius for 1 hour, and heat inactivation at 95 degrees Celsius for 5 minutes.
(§4) The SIRT1-7 primers (table 1) were designed using Primer3. The semi-quantitative PCR reactions were performed on a DNA Engine Peltier Thermo Cycler (Bio-Rad, Hercules, Calif.). PCR was carried under the following conditions: denaturation at 94 degrees Celsius for 2 minutes and primer extension at 54 degrees Celsius for 30 seconds in 34 cycles for SIRT 1-7 and the housekeeping gene 18S.
(§5) Samples were run and resolved on a 1.5 percent agarose gel containing 0.5 μg/ml of ethidium bromide and imaged using the FluorChem HD2 Imaging System (Protein simple, San Jose, Calif.). Densitometry analysis was carried out using the AlphaEase FC software (Protein simple, San Jose, Calif.). Intensity ratios were calculated as the intensity value for each gene divided by the intensity value of the internal control gene 18S.
(§6) The effect of the decapeptides P4, P4A, P4B, and P4C upon the transcription levels of sirtuins 1-7 was evaluated. Table 4 summarizes transcription levels for all four decapeptides with the corresponding genes, at tested concentrations of: 10, 30, 50, 100, and 300 (all in μM).

SIRT2 = SIRT2 transcription, semi-quantitative RT-PCR in human epidermal progenitors; assay type: cell-based; settings: 72 h
Experimental: as §1, §2, §3, §4, §5, §6

SIRT4 = SIRT4 transcription, semi-quantitative RT-PCR in human epidermal progenitors; assay type: cell-based; settings: 72 h
Experimental: as §1, §2, §3, §4, §5, §6

SIRT5 = SIRT5 transcription, semi-quantitative RT-PCR in human epidermal progenitors; assay type: cell-based; settings: 72 h
Experimental: as §1, §2, §3, §4, §5, §6

SIRT6 = SIRT6 transcription, semi-quantitative RT-PCR in human epidermal progenitors; assay type: cell-based; settings: 72 h
Experimental: as §1, §2, §3, §4, §5, §6

SIRT7 = SIRT7 transcription, semi-quantitative RT-PCR in human epidermal progenitors; assay type: cell-based; settings: 72 h
Experimental: as §1, §2, §3, §4, §5, §6

in vitro = assay type: cell-based; settings: human, human epidermal progenitors
Experimental: Proliferation rates were determined using a TACS® MTT Cell Proliferation Kit (R&D systems, Minneapolis, Minn.). Cells were seeded at 2.5×10^4/well in 96-well plates in a humidified atmosphere with 5 percent CO2 at 37 degrees Celsius. Twenty-four hours later, decapeptide-12 or oxyresveratrol were added to the corresponding wells at varying concentrations (0, 3, 10, 30, 100, 300, and 1000 μM), and cultures were then incubated for 72 hours. The remainder of the procedure was performed following the manufacturer's protocol.
(§7) Proliferation rates for three human cell lines (epidermal progenitors, melanoblasts, and fibroblasts) were determined using a TACS® MTT Cell Proliferation Kit. Cells were seeded at 2.5×10^4/well in 96-well plates in a humidified atmosphere with 5 percent CO2 at 37 degrees Celsius. Twenty-four hours later, the decapeptides were added to the corresponding wells at varying concentrations and incubated for 72 hours. The remainder of the procedure was performed following the manufacturer's protocol.

[1] = MTT cell proliferation assay, fibroblasts; assay type: cell-based, human; settings: human, MTT, 72 h, read-out: fibroblast proliferation rate after 72 hours
Experimental: as §7

[2] = Trypan blue cell viability, 7 days, fibroblasts; assay type: cell-based; settings: human, relative to control, read-out: fibroblast viability after 7 days
Experimental: The effect of each of the decapeptides upon cell viability was also tested. In particular, cells were incubated with the decapeptide at various concentrations and then counted for viability relative to the control (untreated cells) using trypan blue. Cytotoxicity was measured according to the following formula:
[1−(# of cells in control−# of live cells in test sample)/# of cells in control]×100 percent.

CCCCCCCCCCCCCCCC(=O)N[C@@H](Cc1ccc(O)cc1)C(=O)N[C@@H](CCCNC(=N)N)C(=O)N[C@@H](CO)C(=O)N[C@@H](CCCNC(=N)N)C(=O)N[C@@H](CCCCN)C(=O)N[C@@H](Cc1ccc(O)cc1)C(=O)N[C@@H](CO)C(=O)N[C@@H](CO)C(=O)N[C@@H](Cc1c[nH]c2ccccc12)C(=O)N[C@@H](Cc1ccc(O)cc1)C(N)=O [P4A, Palmitoyl-YRSRKYSSWY-amide] (HELM PEPTIDE1{[CCCCCCCCCCCCCCCC(=O)[*:2]].Y.R.S.R.K.Y.S.S.W.Y.[am]}$$$$V2.0)
SIRT1 transcription increase relative to control (SIRT1; 10 μM): 18 ± 2%
SIRT1 transcription increase relative to control (SIRT1; 30 μM): 19 ± 1%
SIRT1 transcription increase relative to control (SIRT1; 50 μM): 42 ± 5%
SIRT1 transcription increase relative to control (SIRT1; 100 μM): 144 ± 5%
SIRT1 transcription increase relative to control (SIRT1; 300 μM): 184 ± 2%
SIRT2 transcription increase relative to control (SIRT2; 10 μM): 14 ± 1%
SIRT2 transcription increase relative to control (SIRT2; 30 μM): 15 ± 1%
SIRT2 transcription increase relative to control (SIRT2; 50 μM): 6 ± 3%
SIRT2 transcription increase relative to control (SIRT2; 100 μM): 48 ± 1%
SIRT2 transcription increase relative to control (SIRT2; 300 μM): 30 ± 5%
SIRT4 transcription increase relative to control (SIRT4; 10 μM): 16 ± 1%
SIRT4 transcription increase relative to control (SIRT4; 30 μM): 16 ± 1%
SIRT4 transcription increase relative to control (SIRT4; 50 μM): 9 ± 4%
SIRT4 transcription increase relative to control (SIRT4; 100 μM): 98 ± 12%
SIRT4 transcription increase relative to control (SIRT4; 300 μM): 65 ± 1%
SIRT5 transcription increase relative to control (SIRT5; 10 μM): 13 ± 2%
SIRT5 transcription increase relative to control (SIRT5; 30 μM): 12 ± 2%
SIRT5 transcription increase relative to control (SIRT5; 50 μM): 10 ± 3%
SIRT5 transcription increase relative to control (SIRT5; 100 μM): 47 ± 7%
SIRT5 transcription increase relative to control (SIRT5; 300 μM): 29 ± 4%
SIRT6 transcription increase relative to control (SIRT6; 10 μM): 24 ± 5%
SIRT6 transcription increase relative to control (SIRT6; 30 μM): 25 ± 5%
SIRT6 transcription increase relative to control (SIRT6; 50 μM): 33 ± 7%
SIRT6 transcription increase relative to control (SIRT6; 100 μM): 135 ± 10%
SIRT6 transcription increase relative to control (SIRT6; 300 μM): 85 ± 5%
SIRT7 transcription increase relative to control (SIRT7; 10 μM): 29 ± 6%
SIRT7 transcription increase relative to control (SIRT7; 30 μM): 33 ± 5%
SIRT7 transcription increase relative to control (SIRT7; 50 μM): 52 ± 4%
SIRT7 transcription increase relative to control (SIRT7; 100 μM): 87 ± 6%
SIRT7 transcription increase relative to control (SIRT7; 300 μM): 113 ± 2%
viability at 72 h, 3 µM (in vitro): 99 ± 1%
viability at 72 h, 10 µM (in vitro): 99 ± 1%
viability at 72 h, 30 µM (in vitro): 98 ± 1%
viability at 72 h, 50 µM (in vitro): 97 ± 1%
viability at 72 h, 100 µM (in vitro): 97 ± 2%
viability at 72 h, 300 µM (in vitro): 96 ± 2%
viability at 72 h, 500 µM (in vitro): 96 ± 2%
viability at 72 h, 1000 µM (in vitro): 94 ± 2%
viability at 72 h, 3 µM ([1]; 3 μM): 100%
viability at 72 h, 10 µM ([1]; 10 μM): 99 ± 1%
viability at 72 h, 30 µM ([1]; 30 μM): 98 ± 1%
viability at 72 h, 50 µM ([1]; 50 μM): 98 ± 1%
viability at 72 h, 100 µM ([1]; 100 μM): 97 ± 2%
viability at 72 h, 300 µM ([1]; 300 μM): 97 ± 2%
viability at 72 h, 500 µM ([1]; 500 μM): 96 ± 2%
viability at 72 h, 1000 µM ([1]; 1000 μM): 95 ± 2%
viability at 168 h, 3 µM ([2]; 3 μM): 100%
viability at 168 h, 10 µM ([2]; 10 μM): 98.9 ± 1%
viability at 168 h, 30 µM ([2]; 30 μM): 98.4 ± 1%
viability at 168 h, 50 µM ([2]; 50 μM): 98 ± 1%
viability at 168 h, 100 µM ([2]; 100 μM): 97.4 ± 2%
viability at 168 h, 300 µM ([2]; 300 μM): 96.6 ± 2%
viability at 168 h, 500 µM ([2]; 500 μM): 95.5 ± 2%
viability at 168 h, 1000 µM ([2]; 1000 μM): 94.3 ± 2%
